From patent publication US10927101B2, “Neopetrosides A and B, and synthesis method thereof” (INJE UNIVERSITY INDUSTRY-ACADEMIC COOPERATION FOUNDATION, priority 2016, dated 2021)
Entries after “also recorded” stand apart in the source; their conditions may differ.

What was measured:
[1] = target: GSK-3α (Glycogen synthase kinase-3α) (Homo sapiens, UniProt P49840); test: Kinase screening and IC50 determination, GSK-3α; assay type: biochemical
Method: (§1) First, kinases regulated by NPS A were screened using a set of kinases related to cardiovascular diseases and diabetes.
(§2) The activity of GSK-3 alpha, GSK-3 beta and mTOR kinase regulated by NPS A was measured to determine the half maximal inhibition dosage.

[2] = test system: mitochondria extracted from the heart of rats; test: Oxidative phosphorylation in mitochondria extracted from NPS A-treated rat heart; settings: mitochondria of I/R rat heart, NPS A treatment
[3] = target: mTOR (mammalian target of rapamycin) (Homo sapiens, UniProt P42345); test: Kinase screening and dose-dependence, mTOR; assay type: biochemical
Method: as §1, §2

h9c2 cells [4] = test: Oxygen consumption rate (OCR) / ECAR measurement with XF24 analyzer; assay type: cell-based
Method: For this, the basal oxygen consumption rate (OCR), respiratory related to ATP (adenosine triphosphate), proton leak, maximal capacity and mitochondrial OCR were confirmed.
First, to measure OCR, h9c2 cells were dispensed at 2×10^4 cells/well in an XF24 cell plate (Seahorse Bioscience, Billerica, Mass., USA) and cultured for 16 hours. Thereafter, cells were dispensed with various concentrations of NPS A and cultured for another one hour. After 1 hour, the medium was replaced with 500 μL of XF assay medium-modified DMEM (XF Assay Medium-modified DMEM, Seahorse Bioscience, Billerica, Mass., USA) and incubated for 1 hour in a incubator at 37° C. in absence of CO2.
OCR was measured using an XF24 analyzer (Seahorse Bioscience, Billerica, Mass., USA) and XF24 software. After OCR measurement, the XF 24 assay results were normalized to the cell number and the number of cells in each well was counted by a Luna™ automated cell counter (Logos, Annandale, Va., USA).

[5] = Solubility of NPS A in water and organic solvents; assay type: physicochemical
h9c2 cells [6] = test: Mitochondrial ATP level (Mitochondrial ToxGlo assay); assay type: cell-based; settings: h9c2 cells, 0, 3 or 10 μM NPS A for 1 hour
Method: Furthermore, mitochondrial ATP levels were measured using the Mitochondrial T ToxGlo™ assay (Promega, Madison, Wis., USA) according to the manufacturer's instructions.
Briefly, h9c2 cells were dispensed at 2×10^6 cells/well in a 60 mm tissue culture plate and cultured for 16 hours and treated with 0, 3, or 10 μM NPS A for 1 hour. The treated cells were all collected and resuspended by pipetting until the cells were uniformly dispersed. The resuspended h9c2 cells were dispensed at 2×10^4 cells/well in a 96-well plate and the plates were centrifuged at 200×g for 10 minutes to remove the medium. Thereafter, 50 μL of fresh medium (except for glucose, containing 10 mM galactose) was added.
The cells were incubated in a humidified incubator at 37° C. supplied with CO2 for 90 minutes. Then, the assay solution (100 μL) was added to the plate and reacted at room temperature for 30 minutes. Luminescence was measured using a luminometer (Molecular Device, Sunnyvale, Calif., USA).

[7] = test system: ischemic reperfusion heart model; test: Ischemic reperfusion heart model (Langendorff perfused rat heart); assay type: in vivo, SD rats
Method: 8-week-old male SD rats (200-250 g) were anesthetized by intraperitoneal injection of sodium pentobarbital (100 mg/kg). The chest cavity was exposed and a glass cannula was inserted into the aorta. The heart was quickly cut into thoracotomy, perfused with a normal Tyrode's solution in a Langendorff system and equilibrated with 95% O2 and 5% CO2 at 37° C. for 10 min to remove all blood. The heart of the rat was extirpated and the experiment was performed using a non-circulating system. First, ischemic reperfusion (I/R) model and drug treatment group (NPS A treatment; NPS A 10 μM treatment after ischemia reperfusion) were performed and hypoxic solution was flowed for 30 minutes. After 30 minutes, the normal tyrode solution and NPS A were treated together to restore cardiac function and confirm changes in electrocardiogram. […] After global ischemia (initiating reperfusion), 10 μM of NPS A was administered for 30 minutes.

h9c2 cells [8] = test: MTT toxicity assay in h9c2 myocardial cells; assay type: cell-based; settings: 24 hours treatment
Method: In h9c2 cells, myocardial cells, the toxicity of NPS A extracted from Neopetrosia sp. Of Example 1 was confirmed.
The h9c2 cells were dispensed at 2×10^4 cells/well in a 96-well tissue culture plate and cultured for 16 hours. Thereafter, various concentrations of NPS A were treated and cultured for additional 24 hours.
After the culture, a quantitative colorimetric assay using MTT(3-(4,5-dimethylthiazol-2-yl)-2,5-diphenyltetrazolium bromide (Sigma-Aldrich, St. Louis, Mo., USA) was performed to confirm the survival rate of the cells.
The degree of reduction of MTT to intracellular formazan was confirmed by measuring the optical density at 570 nm using a microplate reader (Molecular device, Sunnyvale, Calif., USA).

[9] = test system: candidate kinases of the first type (cardiovascular diseases); test: Kinase screening, set of kinases related to cardiovascular diseases; assay type: biochemical
Text: as §1

h9c2 cells [10] = test: Glycolysis activity, capacity and reserve with XF24 analyzer; assay type: cell-based; settings: 10 μM NPS A compared to 20 μM or 30 μM, 1 hour
Method: After treating h9c2 cells with NPS A, the glycolysis activity, the glycolysis capacity and the glycolysis reserve were confirmed using an XF24 analyzer.
h9c2 cells were treated sequentially with 10 mM glucose (G), 1 μM oligomycin (O) and 10 mM 2-dioxyglucose (2DG), treated with NPS A for 1 hour and then measured with an XF24 analyzer.

GSK-3β = GSK-3β (Homo sapiens, UniProt P49841); test: Kinase screening and IC50 determination, GSK-3β; assay type: biochemical
GSK-3β, sequence (P49841 whole entry, species assumed): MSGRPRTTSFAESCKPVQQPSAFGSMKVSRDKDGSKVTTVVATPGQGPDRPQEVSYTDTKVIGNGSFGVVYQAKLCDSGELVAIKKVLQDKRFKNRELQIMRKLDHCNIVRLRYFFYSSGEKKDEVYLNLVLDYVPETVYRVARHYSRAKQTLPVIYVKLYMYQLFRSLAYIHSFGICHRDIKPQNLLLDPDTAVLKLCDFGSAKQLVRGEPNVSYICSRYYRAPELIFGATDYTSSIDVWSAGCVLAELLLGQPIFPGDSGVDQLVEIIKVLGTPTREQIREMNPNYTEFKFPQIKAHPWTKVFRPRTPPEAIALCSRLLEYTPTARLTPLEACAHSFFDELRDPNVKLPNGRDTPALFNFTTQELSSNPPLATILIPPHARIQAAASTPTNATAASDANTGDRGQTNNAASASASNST
Method: as §1, §2

[11] = kinase screening, kinases related with diabetes

GSK-3α (Glycogen synthase kinase-3α), sequence (P49840 whole entry, species assumed): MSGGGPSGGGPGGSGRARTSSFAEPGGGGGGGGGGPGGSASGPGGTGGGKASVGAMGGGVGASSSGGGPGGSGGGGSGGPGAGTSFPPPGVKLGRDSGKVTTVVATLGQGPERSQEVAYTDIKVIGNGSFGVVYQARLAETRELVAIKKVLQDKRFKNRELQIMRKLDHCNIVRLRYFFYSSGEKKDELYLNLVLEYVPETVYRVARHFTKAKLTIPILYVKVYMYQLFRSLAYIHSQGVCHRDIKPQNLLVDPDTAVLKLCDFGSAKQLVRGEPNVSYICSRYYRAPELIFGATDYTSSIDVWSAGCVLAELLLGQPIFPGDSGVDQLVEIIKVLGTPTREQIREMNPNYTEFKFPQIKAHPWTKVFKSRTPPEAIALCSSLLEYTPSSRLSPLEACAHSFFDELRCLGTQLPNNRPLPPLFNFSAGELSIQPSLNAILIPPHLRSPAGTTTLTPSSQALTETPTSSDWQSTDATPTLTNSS

## O=C([O-])c1ccc[n+](C2OC(COC(=O)c3ccc(O)cc3)C(O)C2O)c1 (centres unmarked) [NPS A, Neopetroside A]
[1]
  IC50: 140 µM
[1]; [11]
  kinase screening result, GSK-3α: inhibited
[2]
  respiratory control ratio (RCP): recovered
  three-stage respiratory depression in mitochondria (OCR): significantly protected
[3]; different doses of NPS A
  mTOR activity according to doses of NPS A: no change
[3]; [11]
  kinase screening result, mTOR: inhibited
h9c2 cells [4]
  OCR/ECAR ratio: increased
  basal ECAR (extracellular acidification rate): increased
h9c2 cells [4]; 1 hour treatment
  basal OCR: up-regulated; also recorded: increased
  mitochondrial OCR: up-regulated
  oxidative phosphorylation: up-regulated
  respiration associated with ATP: up-regulated
[5]; other organic solvents
  solubility in other organic solvents: not well soluble
[5]; pyridine and methanol
  solubility in pyridine and methanol: dissolves in pyridine and methanol
[5]; water
  solubility in water: dissolves in water
h9c2 cells [6]
  ATP synthesis: stimulates; also recorded: up-regulated
  intracellular ATP levels: increases
[7]; 10 μM NPS A during reperfusion
  cardiac rhythm: recovered
  size of the heart infarction: significantly reduced
[7]; 10 μM NPS A for 30 minutes during reperfusion after 30 minutes global ischemia
  left ventricular pressure (LV pressure): effectively restored
h9c2 cells [8]
  concentration up to which not toxic to the myocardial cells (MTT survival): ≤ 300 µM
[9]
  regulation of candidate kinases of the first type: did not regulate most
h9c2 cells [10]
  glycolysis activity: greatest
  glycolysis capacity: greatest
GSK-3β
  IC50: 124 µM
GSK-3β; [11]
  kinase screening result, GSK-3β: inhibited
